Patent US7338968B2, “Thiadiazoles AS CXC- and CC- chemokine receptor ligands” (Schering Corporation, priority 2003, dated 2008)
pEC50, pKi: −log10 of the molar value.

Key:
hCXCR2 = target: T1, hCXCR2 (Homo sapiens, UniProt P25025); experiment: CXCR2 SPA assay ([125I]-IL-8 binding, hCXCR2-CHO membranes; incl. alternative 50 μl and 200 μl protocols)
T1 construct: purchased Biosignal / Biosignal Packard; host or cells: CHO cells (membranes)
T1 sequence (P25025 1-360): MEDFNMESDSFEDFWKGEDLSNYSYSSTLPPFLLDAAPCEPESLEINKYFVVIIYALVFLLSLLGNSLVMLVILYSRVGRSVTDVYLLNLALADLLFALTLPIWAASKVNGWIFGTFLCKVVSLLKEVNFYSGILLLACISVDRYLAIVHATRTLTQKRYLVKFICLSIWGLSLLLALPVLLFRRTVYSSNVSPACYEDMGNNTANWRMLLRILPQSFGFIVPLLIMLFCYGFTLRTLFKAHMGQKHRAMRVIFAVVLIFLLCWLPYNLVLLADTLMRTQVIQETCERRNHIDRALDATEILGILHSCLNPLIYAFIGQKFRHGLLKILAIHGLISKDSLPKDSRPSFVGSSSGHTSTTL
Experimental: For each well of a 96 well plate, a reaction mixture of 4 μg hCXCR2-CHO overexpressing membranes (Biosignal) and 200 μg/well WGA-SPA beads (Amersham) in 100 μl was prepared in CXCR2 assay buffer (25 mM HEPES, pH 7.4, 2 mM CaCl2, 1 mM MgCl2). A 0.4 nM stock of ligand, [^125I]-IL-8 (NEN), was prepared in the CXCR2 assay buffer. 20× stock solutions of test compounds were prepared in DMSO (Sigma). A 6× stock solution of GRO-α (R&D) was prepared in CXCR2 assay buffer. […]
For each 50 μl reaction, a working stock of 0.031 μg/μl hCXCR2-CHO over-expressing membranes with a specific activity of 0.4 pmol/mg (Biosignal Packard) and 2.5 μg/μl WGA-SPA beads (Perkin Elmer Life Sciences) was prepared in CXCR2 assay buffer (25 mM HEPES, pH 7.4, 2.0 mM CaCl2, 1 mM MgCl2) (Sigma). […] The assay plates were incubated for 2 hours before cpm/well were determined in a Microbeta Trilux counter (Perkin Elmer Life Sciences). IC50 values were quantified using nonlinear regression analysis in GraphPad Prism. […]
For each 200 μl reaction, a working stock of 0.02 μg/μl hCXCR2—CHO over-expressing membranes with a specific activity of 0.6 pmol/mg (Biosignal Packard) and 2 μg/μl WGA-SPA beads (Perkin Elmer Life Sciences) was prepared in CXCR2 assay buffer (25 mM HEPES, pH 7.4, 2.0 mM CaCl2, 1 mM MgCl2) (Sigma). […] IC50 values were quantified using nonlinear regression analysis in GraphPad Prism.

CCR7 = target: T2, CCR7 (Homo sapiens, UniProt P32248); experiment: CCR7 [35S]GTPγS exchange assay (SPA, Ba/F3-CCR7 membranes, 2 nM MIP-3); type: biochemical
T2 construct: expressed in transfected cells; host or cells: Ba/F3 cells (membranes prepared in house)
T2 sequence (P32248 25-378): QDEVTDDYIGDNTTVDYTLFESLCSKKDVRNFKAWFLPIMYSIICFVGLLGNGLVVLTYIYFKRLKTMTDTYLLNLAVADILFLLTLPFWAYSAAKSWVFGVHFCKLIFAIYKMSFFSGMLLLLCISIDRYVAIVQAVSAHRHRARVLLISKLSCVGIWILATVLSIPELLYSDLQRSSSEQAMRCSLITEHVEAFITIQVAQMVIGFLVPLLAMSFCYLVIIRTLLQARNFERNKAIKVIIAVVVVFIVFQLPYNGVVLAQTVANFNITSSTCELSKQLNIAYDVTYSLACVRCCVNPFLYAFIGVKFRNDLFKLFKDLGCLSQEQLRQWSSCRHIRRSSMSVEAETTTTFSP
Experimental: CCR7 Membrane Preparation.
Ba/F3-CCR7 membranes were prepared as previously described (Hipkin et al., J. Biol. Chem., 272, 1997, 13869-76). Cells were pelleted by centrifugation, incubated in homogenization buffer (10 mM Tris-HCl, 5 mM EDTA, 3 mM EGTA, pH 7.6) and 1 μM PMSF for 30 min. on ice. The cells were then lysed with a Dounce homogenizer using stirrer type RZR3 polytron homogenizer (Caframo, Wiarton, Ont.) with 12 strokes at 900 RPM. The intact cells and nuclei were removed by centrifugation at 500×g for 5 min. The cell membranes in the supernatant were then pelleted by centrifugation at 100,000×g for 30 min. The membranes were then resuspended in glygly buffer (20 mM glycylglycine, 1 mM MgCl2, 250 mM sucrose, pH 7.2), aliquoted, quick frozen and stored at −80° C.
CCR7 [^35S]GTPγS Exchange Assay.
The exchange of guanosine 5′-[γ-^35S]triphospate ([^35S]GTPγS, triethylammonium salt; specific activity=1250 Ci/mmol; NEN Boston, Mass.) was measured using a scintillation proximity assay (SPA) as previously described (Cox, et. al., Mol. Pharmacol., 59, 2001, 707-15). […] Membrane-bound [^35S]GTPγS was measured using a 1450 Microbeta Trilux counter (Wallac, Gaithersburg, Md.).

hCXCR1 = target: T3, hCXCR1 (Homo sapiens, UniProt P25024); experiment: CXCR1 SPA assay ([125I]-IL-8 binding, hCXCR1-CHO membranes; incl. alternative Biosignal Packard and Euroscreen protocols)
T3 construct: purchased Biosignal / Biosignal Packard; alternatively Euroscreen; host or cells: CHO cells (membranes)
T3 sequence (P25024 1-350): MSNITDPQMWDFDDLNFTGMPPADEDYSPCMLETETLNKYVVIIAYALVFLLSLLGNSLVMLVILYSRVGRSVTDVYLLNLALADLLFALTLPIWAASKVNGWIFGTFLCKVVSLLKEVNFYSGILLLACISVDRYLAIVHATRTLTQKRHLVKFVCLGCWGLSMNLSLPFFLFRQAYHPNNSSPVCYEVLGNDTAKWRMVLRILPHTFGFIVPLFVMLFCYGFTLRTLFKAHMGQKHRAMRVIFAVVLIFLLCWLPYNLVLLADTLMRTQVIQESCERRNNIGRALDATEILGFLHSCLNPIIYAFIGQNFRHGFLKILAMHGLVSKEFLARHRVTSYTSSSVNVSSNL
Experimental: For each well of a 96 well plate, a reaction mixture of 10 μg hCXCR1-CHO overexpressing membranes (Biosignal) and 200 μg/well WGA-SPA beads (Amersham) in 100 μl was prepared in CXCR1 assay buffer (25 mM HEPES, pH 7.8, 2 mM CaCl2, 1 mM MgCl2, 125 mM NaCl, 0.1% BSA) (Sigma). A 0.4 nM stock of ligand, [125I]-IL-8 (NEN) was prepared in the CXCR1 assay buffer. 20× stock solutions of test compounds were prepared in DMSO (Sigma). […] The above solutions were added to a 96-well assay plate (PerkinElmer) as follows: 10 μl test compound or DMSO, 40 μl CXCR1 assay buffer or IL-8 stock, 100 μl of reaction mixture, 50 μl of ligand stock (Final [Ligand]=0.1 nM).
For each 50 μl reaction, a working stock of 0.25 μg/μl hCXCR1-CHO over-expressing membranes with a specific activity of 0.05 pmol/mg (Biosignal Packard) and 25 μg/μl WGA-SPA beads (Perkin Elmer Life Sciences) was prepared in CXCR1 assay buffer (25 mM HEPES, pH 7.8, 0.1 mM CaCl2, 1 mM MgCl2, 100 mM NaCl) (Sigma). This mixture was incubated on ice for 30 minutes and then centrifuged at 2500 rpm for 5 minutes. The beads and membranes were resuspended in CXCR1 assay buffer to the same concentrations as in the original mixture. […] The assay plates were incubated for 4 hours before cpm/well were determined in a Microbeta Trilux counter (Perkin Elmer Life Sciences). IC50 values were quantified using nonlinear regression analysis in GraphPad Prism. […]

Row | pKi (hCXCR2) | pEC50 (CCR7) | pKi (hCXCR1) | Structure (SMILES)
1 | 7.85 | 7.66 |  | Cc1ccc([C@H](Nc2nsnc2Nc2cccc(C(=O)N(C)C)c2O)C(C)(C)C)o1 [Example 6]
2 | 7.55 |  | 6.09 | CC[C@@H](Nc1nsnc1Nc1cccc(C(=O)N(C)C)c1O)c1cc(C(C)C)co1 [Example 1]
3 |  | 6.06 |  | Cc1ccc([C@H](Nc2nsnc2Nc2cccc(C(=O)N(C)C)c2O)C(C)C)o1 [Example 3]
